Experimental findings from US7772183B2 (Bristol-Myers Squibb Company, priority 2005, dated 2010) are described below.

Some results are limits rather than exact numbers.

In assay [1] the target is T1, HCV NS3/4A protease complex, H77 strain (Hepatitis C virus genotype 1a, UniProt P27958, C1454S/C1711G).
T1 construct: DNA encoding the recombinant HCV NS3/4A protease complex (amino acids 1027 to 1711) for these strains; inferred from the pET21b vector and Ni-NTA purification; made in house; host or cells: Escherichia coli BL21 (DE3), pET21b
The experiment in a line: FRET peptide assay to monitor HCV NS3/4A proteolytic activity (H77 strain). It is filed as biochemical. The source says: HCV NS3 protease complexes, derived from the BMS strain, H77 strain or J4L6S strain, were generated, as described below. These purified recombinant proteins were generated for use in a homogeneous assay (see below) to provide an indication of how effective compounds of the present disclosure would be in inhibiting HCV NS3 proteolytic activity.
Serum from an HCV-infected patient was obtained from Dr. T. Wright, San Francisco Hospital. An engineered full-length cDNA (compliment deoxyribonucleic acid) template of the HCV genome (BMS strain) was constructed from DNA fragments obtained by reverse transcription-PCR (RT-PCR) of serum RNA (ribonucleic acid) and using primers selected on the basis of homology between other genotype 1a strains. From the determination of the entire genome sequence, a genotype 1a was assigned to the HCV isolate according to the classification of Simmonds et al. (See P Simmonds, K A Rose, S Graham, S W Chan, F McOmish, B C Dow, E A Follett, P L Yap and H Marsden, J. Clin. Microbiol., 31(6), 1493-1503 (1993)). […]

The target in assay [2] is T2, human neutrophil elastase (HNE) (Homo sapiens, UniProt P08246).
T2 construct: purchased Sigma or EMDbiosciences
T2 sequence (P08246 30-267): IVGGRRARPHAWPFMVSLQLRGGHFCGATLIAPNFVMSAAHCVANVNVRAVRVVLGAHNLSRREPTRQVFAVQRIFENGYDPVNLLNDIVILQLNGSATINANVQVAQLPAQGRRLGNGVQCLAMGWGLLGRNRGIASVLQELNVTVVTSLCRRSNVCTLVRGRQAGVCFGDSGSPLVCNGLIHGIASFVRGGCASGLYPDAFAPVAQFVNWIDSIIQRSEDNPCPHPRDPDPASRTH
The experiment in a line: Specificity assay, neutrophil elastase. In kind it is biochemical. Conditions: read-out: HLE activity in the specificity assays. As to the method:
The specificities of compounds of the present disclosure were determined against a variety of serine proteases: human neutrophil elastase (HNE), porcine pancreatic elastase (PPE) and human pancreatic chymotrypsin and one cysteine protease: human liver cathepsin B. In all cases, a 96-well plate format protocol using colorimetric p-nitroaniline (pNA) substrate or fluorometric Amino-Methyl-Coumarin (AMC) substrate, specific for each enzyme was used as described previously (PCT Patent Application No. WO 00/09543) with some modifications. All enzymes were purchased from Sigma or EMDbiosciences while the substrates were from Bachem.
Each pNA assay included a 2 h enzyme-inhibitor pre-incubation at room temperature followed by addition of substrate and hydrolysis to ˜15% conversion as measured on a Spectramax Pro microplate reader. The cathepsin B assay was initiated by adding substrate to a 10 min enzyme-inhibitor pre-incubation at room temperature, and the assay plate measured immediately using the Cytofluor Series 4000. Compound concentrations varied from 100 to 0.4 μM depending on their potency.
The final conditions for each assay were as follows: […]
The percentage of inhibition was calculated using the formula: [1−((UVinh−UVblank)/(UVctl−UVblank))]×100 […]

T1 sequence (P27958 1027-1711 C1454S/C1711G, one chain of several): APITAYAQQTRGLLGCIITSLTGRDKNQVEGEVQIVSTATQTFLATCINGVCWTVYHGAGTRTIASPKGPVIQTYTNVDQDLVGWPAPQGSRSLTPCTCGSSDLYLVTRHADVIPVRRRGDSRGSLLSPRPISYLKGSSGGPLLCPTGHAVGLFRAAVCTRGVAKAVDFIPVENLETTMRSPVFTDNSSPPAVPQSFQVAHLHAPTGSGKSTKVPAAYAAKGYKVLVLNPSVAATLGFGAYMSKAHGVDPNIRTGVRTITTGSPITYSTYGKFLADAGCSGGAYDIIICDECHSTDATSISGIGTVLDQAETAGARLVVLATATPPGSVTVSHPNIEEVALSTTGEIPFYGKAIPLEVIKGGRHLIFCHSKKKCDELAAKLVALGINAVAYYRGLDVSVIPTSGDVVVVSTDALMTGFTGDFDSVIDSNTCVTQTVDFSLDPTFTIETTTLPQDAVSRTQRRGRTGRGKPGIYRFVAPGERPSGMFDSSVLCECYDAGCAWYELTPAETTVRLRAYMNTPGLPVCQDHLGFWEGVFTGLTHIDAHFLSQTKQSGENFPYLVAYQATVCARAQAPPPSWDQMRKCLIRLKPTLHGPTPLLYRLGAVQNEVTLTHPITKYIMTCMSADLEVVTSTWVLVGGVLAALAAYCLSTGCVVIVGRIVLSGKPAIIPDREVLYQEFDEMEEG

As to `CC(C)(C)OC(=O)N[C@H]1CCCCC/C=C\[C@@H]2C[C@@]2(C(=O)NS(=O)(=O)C2CC2)NC(=O)[C@@H]2C[C@@H](OC(=O)c3ccc(C#N)cc3)CN2C1=O` [Compound 26, 18-(4-cyanobenzoyloxy)-14-tert-butoxycarbonylamino-4-cyclopropylsulfonylaminocarbonyl-2,15-dioxo-3,16-diazatricyclo-[14.3.0.0^4,6]-nonadec-7-ene], the IC50 is 0.53 nM in assay [1] and over 100000 nM in assay [2].
